From ChEMBL document CHEMBL1201862, “PubChem BioAssay data set” (2004) come the findings set out here.

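Five concentrations, 48 hours, 96-well plates. GI50 = concentration required for 50% inhibition of growth.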 The source made the active and inactive calls. Cut-off read from the data, not from the text of the source: active = GI50 up to about 1.1 µM and inactive = higher. Square brackets hold non-standard residues; d marks the D form. Peptide text beside a SMILES is read from it. * marks the point of attachment. Bn2Val = CC(C)[C@@H](C(=O)*)N(Cc1ccccc1)Cc1ccccc1; NH(3,4-diMeO-benzyl) = COc1ccc(CN*)cc1OC; NMeV = CN[C@H](C(=O)O)C(C)C; dNMeA = CN[C@H](C)C(=O)O

Some test systems named below: SK-MEL-28; OVCAR-5; SK-MEL-5; NCI-H522; DU-145; KM12; MDA-N; MDA-MB-231; Hs-578T; MOLT-4; IGROV-1; 786-0; HOP-92; NCI/ADR-RES; K562; SF-268; BT-549; CCRF-CEM; SW-620; HL-60.
Assay in all cases: NCI anticancer screen, dose series, 48 h

In the case of `O=C1C=CC(=O)c2cc(Sc3ccccc3)c(=O)ccc21`, the GI50 with SK-MEL-28 was 18 µM (inactive); with OVCAR-5 it was 19.6 µM (inactive); in the assay on SK-MEL-5 it was 14.2 µM (inactive); in the assay on NCI-H522 it was 2.32 µM (inactive); in the assay with DU-145 it was 17.4 µM (inactive); with KM12, 18.1 µM (inactive). Further, the GI50 is 16.9 µM (inactive) in the assay with MDA-N; 17.9 µM (inactive) in the assay with MDA-MB-231; 27.4 µM (inactive) in the assay with Hs-578T; 2.24 µM (inactive) in the assay with MOLT-4; 18.5 µM (inactive) in the assay with IGROV-1; 14.8 µM (inactive) with 786-0. Besides, the GI50 with HOP-92 is 10.4 µM (inactive); with NCI/ADR-RES it was 22 µM (inactive); with K562 it was 2.49 µM (inactive); in the assay on SF-268, 22 µM (inactive); in the assay with BT-549 it was 17.9 µM (inactive); with CCRF-CEM, 1.76 µM (inactive). The GI50 is 3.83 µM (inactive) with SW-620 and 0.877 µM (active) in the assay with HL-60.
On to `Cc1nn2c(=O)c([N+](=O)[O-])c(/C=C/c3ccccc3)nc2s1`, for which the GI50 in the assay on SK-MEL-28 was 5.33 µM (inactive); with OVCAR-5, 4.68 µM (inactive); in the assay with SK-MEL-5 it was 3.69 µM (inactive); with NCI-H522, 3.3 µM (inactive); in the assay with DU-145, 3.74 µM (inactive); in the assay with KM12 it was 3.13 µM (inactive). Moreover, the GI50 in the assay with MDA-N was 2.4 µM (inactive); with MDA-MB-231, 11.5 µM (inactive); in the assay on Hs-578T, 7.33 µM (inactive); in the assay on MOLT-4, 2.98 µM (inactive); in the assay with IGROV-1, 5.51 µM (inactive); in the assay on 786-0 it was 4.52 µM (inactive). Also, the GI50 is 8.28 µM (inactive) in the assay with HOP-92; 3.56 µM (inactive) with NCI/ADR-RES; 2.56 µM (inactive) in the assay with K562; 3.92 µM (inactive) in the assay with SF-268; 2.37 µM (inactive) with BT-549; 2.21 µM (inactive) with CCRF-CEM. Further, the GI50 with SW-620 is 5.24 µM (inactive); in the assay on HL-60, 2.28 µM (inactive).
In the case of `C=CC1ON(Cc2ccccc2)CCc2cc(OC)c(OC)cc21` (stereo not given), the GI50 with SK-MEL-28 was 36.9 µM (inactive); with OVCAR-5, > 100 µM (inactive); in the assay with SK-MEL-5 it was 16.1 µM (inactive); with NCI-H522, 41.5 µM (inactive); in the assay on DU-145, > 100 µM (inactive); in the assay with KM12 it was 27 µM (inactive). Also, the GI50 is 29 µM (inactive) in the assay on MDA-N; 81.1 µM (inactive) with MDA-MB-231; > 100 µM (inactive) with Hs-578T; 34.7 µM (inactive) with MOLT-4; 78 µM (inactive) with IGROV-1; > 100 µM (inactive) in the assay with 786-0. The GI50 with HOP-92 is 46.5 µM (inactive); with NCI/ADR-RES, 45.5 µM (inactive); with K562, 42 µM (inactive); in the assay on SF-268 it was 46.6 µM (inactive); with BT-549 it was 28.1 µM (inactive); with CCRF-CEM it was 45.7 µM (inactive). The GI50 in the assay with SW-620 was 44.9 µM (inactive); with HL-60, 26.1 µM (inactive).
On to `COc1cc(C2c3cc4c(cc3OC3(OC)COC(=O)C23)OCO4)cc(OC)c1OC(C)=O` (stereo not given), for which the GI50 in the assay with SK-MEL-28 was 2.27 µM (inactive); with OVCAR-5 it was 4.6 µM (inactive); in the assay with SK-MEL-5, 0.726 µM (active); in the assay on NCI-H522, 0.263 µM (active); with DU-145, 2.52 µM (inactive); with KM12 it was 0.881 µM (active). For the same compound, the GI50 in the assay on MDA-N is 0.206 µM (active); in the assay with MDA-MB-231, 2.9 µM (inactive); in the assay with Hs-578T, 0.54 µM (active); with MOLT-4, 3.96 µM (inactive); in the assay with IGROV-1 it was 2.21 µM (inactive); in the assay on 786-0 it was 1.21 µM (inactive). For the same compound, the GI50 in the assay on HOP-92 is 51.2 µM (inactive); in the assay with NCI/ADR-RES it was 0.323 µM (active); in the assay on K562 it was 1.04 µM (active); in the assay on SF-268, 6.75 µM (inactive); in the assay on BT-549 it was 5 µM (inactive); in the assay with CCRF-CEM, 2.24 µM (inactive). For the same compound, the GI50 is 0.552 µM (active) with SW-620 and 1.23 µM (inactive) in the assay with HL-60.
As for `C=C1C(C)C2C(Cc3ccccc3)NC(=O)C23C(OC(C)=O)/C=C/C(C)(O)CC(C)C/C=C/C3C1O` (stereo not given), the GI50 with SK-MEL-28 is 3.94 µM (inactive); with OVCAR-5, 70.6 µM (inactive); in the assay on SK-MEL-5, 3.05 µM (inactive); in the assay on NCI-H522, 2.26 µM (inactive); with DU-145, > 100 µM (inactive); with KM12, 97.3 µM (inactive). The GI50 in the assay on MDA-N was > 100 µM (inactive); with MDA-MB-231, 0.222 µM (active); in the assay on Hs-578T, 0.0129 µM (active); with MOLT-4, 5.15 µM (inactive); with IGROV-1, 1.32 µM (inactive); in the assay with 786-0, 0.632 µM (active). Moreover, the GI50 with HOP-92 is 0.154 µM (active); with NCI/ADR-RES it was 57 µM (inactive); in the assay on K562, 23.3 µM (inactive); in the assay on SF-268, 0.519 µM (active); in the assay with BT-549, 2.67 µM (inactive); in the assay on CCRF-CEM, 1.03 µM (active). The GI50 is 90.6 µM (inactive) in the assay with SW-620 and 5.02 µM (inactive) in the assay on HL-60.
As for `CC1(C)COC2=C(C1)C(=O)c1ccccc1C2=O`, the GI50 with SK-MEL-28 was 1.64 µM (inactive); in the assay on OVCAR-5 it was 1.69 µM (inactive); in the assay on SK-MEL-5, 0.71 µM (active); in the assay on NCI-H522, 1.85 µM (inactive); in the assay on DU-145 it was 1.64 µM (inactive); in the assay on KM12, 1.76 µM (inactive). Further, the GI50 in the assay on MDA-N is 0.182 µM (active); in the assay with MDA-MB-231, 2.04 µM (inactive); in the assay with Hs-578T it was 2.88 µM (inactive); in the assay with MOLT-4 it was 1.5 µM (inactive); with IGROV-1, 1.65 µM (inactive); in the assay on 786-0, 1.84 µM (inactive). In addition, the GI50 in the assay on HOP-92 was 2.3 µM (inactive); in the assay on NCI/ADR-RES, 0.452 µM (active); in the assay on K562, 0.102 µM (active); in the assay with SF-268, 1.65 µM (inactive); in the assay on BT-549, 1.85 µM (inactive); in the assay on CCRF-CEM it was 2.37 µM (inactive). Besides, the GI50 was 1.69 µM (inactive) in the assay on SW-620 and 0.583 µM (active) with HL-60.
Regarding `COc1ccc(CNC(=O)[C@@H](C)N(C)C(=O)[C@@H]2CCCN2C(=O)[C@H](C(C)C)N(C)C(=O)[C@@H](NC(=O)[C@H](C(C)C)N(Cc2ccccc2)Cc2ccccc2)C(C)C)cc1OC` (Bn2Val-V[NMeV]P[dNMeA]-{NH(3,4-diMeO-benzyl)}), the GI50 in the assay with SK-MEL-28 is 8.34 µM (inactive); in the assay on OVCAR-5 it was 8.2 µM (inactive); with SK-MEL-5 it was 5.87 µM (inactive); in the assay with NCI-H522, 3.19 µM (inactive); in the assay with DU-145, 14 µM (inactive); with KM12, 10.4 µM (inactive). The GI50 in the assay on MDA-N was 9.06 µM (inactive); in the assay with MDA-MB-231 it was 8.15 µM (inactive); in the assay with Hs-578T, 1.36 µM (inactive); in the assay with MOLT-4, 4.05 µM (inactive); in the assay on IGROV-1, 5.14 µM (inactive); in the assay on 786-0, 8.97 µM (inactive). Further, the GI50 in the assay with HOP-92 was 7.4 µM (inactive); with NCI/ADR-RES, 7.19 µM (inactive); in the assay with K562, 10.8 µM (inactive); in the assay with SF-268 it was 6.41 µM (inactive); in the assay with BT-549, 7.69 µM (inactive); in the assay with CCRF-CEM, 2.23 µM (inactive). The GI50 was 10.1 µM (inactive) in the assay on SW-620 and 1.8 µM (inactive) in the assay on HL-60.
Consider `C[C@@H]1CC[C@@]2(C)[C@H](C)/C(=C\COC(=O)/C=C/c3ccc(O)c(O)c3)CC[C@@]12C` [NAVICULYL CAFFEATE], for which the GI50 with SK-MEL-28 is 10.8 µM (inactive); in the assay on OVCAR-5, 18 µM (inactive); with SK-MEL-5, 5.15 µM (inactive); with NCI-H522 it was 1.28 µM (inactive); in the assay with DU-145, 8.02 µM (inactive); in the assay on KM12, 3.95 µM (inactive). Further, the GI50 is 3.42 µM (inactive) with MDA-N; 7.83 µM (inactive) with MDA-MB-231; 13.2 µM (inactive) in the assay on Hs-578T; 2.26 µM (inactive) in the assay with MOLT-4; 7.31 µM (inactive) in the assay with IGROV-1; 4.37 µM (inactive) with 786-0. Also, the GI50 in the assay with HOP-92 is 14.1 µM (inactive); with NCI/ADR-RES, 7.8 µM (inactive); with K562 it was 4.99 µM (inactive); in the assay with SF-268, 9.84 µM (inactive); in the assay on BT-549 it was 14.6 µM (inactive); in the assay with CCRF-CEM, 1.11 µM (active). Besides, the GI50 is 4.95 µM (inactive) with SW-620 and 5.26 µM (inactive) in the assay with HL-60.
